Results: publication PMC7931236, “Nonclassical antagonism between human lysozyme and AMPs against Pseudomonas aeruginosa” (FEBS Open Bio, 2021)
≈ marks a conversion by molar mass, not a printed value. Read-outs that look alike come from different tables or passages of the source. Where a SMILES comes first, the peptide text is derived from it. Bridges are numbered along the chain shown (N, C = ends). Where no end group is shown, it is not given here.

Columns and labels:
[1] = system: P. aeruginosa strain H1001
Experimental: (§1) The mucoid bioluminescent P. aeruginosa strain Xen05 was purchased from Caliper life Sciences, Inc. The nonmucoid bioluminescent strain H1001 was the kind gift of Robert Hancock (University of British Columbia, Vancouver, BC, Canada). Both strains were stored as glycerol stocks at −80 °C. Recombinant hLYS and freeze‐dried Micrococcus luteus were purchased from Sigma Millipore (Burlington, MA, USA). Protegrin 1 AMP (PTG1) and HB71 peptides (> 95% purity) were obtained from Peptide 2.0. LL‐37, Melittin, and Tet009 peptides (> 95% purity) were purchased from GenScript (Piscataway, NJ, USA). Human beta defensin 3 AMP (hBD3) peptide was purchased from AnaSpec. Peptide stock solutions were stored at −20 °C. All other reagents and materials were purchased from Fisher Scientific (Waltham, MA, USA).
(§2) We analyzed the dose–response potency of each AMP against both strains via a well‐validated luminescence assay. Hundred microlitre of exponential phase cells (5 × 10^6 cells/mL) in dextrose/tris (DT) buffer (20 mM dextrose, 100 mM Tris, pH 7.4) were incubated with a 1 : 2 dilution series of each AMP in white, flat‐bottomed, 96‐well plates at 37 °C for 4 h. Culture luminescence was then quantified by imaging with a CCD camera (Bio‐Rad ChemiDoc XRS System, Hercules, CA, USA). Measurements were normalized to the no‐treatment controls on the same plate, and potency was quantified by a 3‐parameter logistic regression of luminescence versus AMP concentration, yielding EC50 values (Fig. S1). Importantly, the luminescence of these P. aeruginosa strains is known to correlate with bacterial viability. Assays were done in technical triplicate or quadruplicate and repeated at least twice.

[2] = system: P. aeruginosa strain Xen05
Experimental: as §1, §2

[3] = system: P. aeruginosa strain H1001; format: cell-based, Pseudomonas aeruginosa; details: for Interaction with hLYS against nonmucoid strain H1001: class by FICI, checkerboard with hLYS
Experimental: (§3) Checkerboard, or 2‐D MIC, assays were performed analogous to the single agent dose–response studies above, except that 1 : 2 serial dilutions of hLYS were made across the rows of a 96‐well plate, and 1 : 2 serial dilutions of the AMP were made down the columns of the same plate, such that each well contained a unique concentration mixture of the two agents. Controls without treatment (growth control) and without bacteria (sterility control) were included on all plates. Assays were repeated as three independent trials (biological replicates), and results are the average of all measurements.
(§4) To quantify antibacterial interactions, fractional inhibitory concentrations (FIC) and FIC index values (FICI) were calculated as described elsewhere, though in this case using EC50 values in place of conventional growth/no growth visual observations. Briefly, the FIC for one agent is the ratio of its […]. The corresponding FIC values for the two agents in each row and column, respectively, of a checkerboard plate may be summed, and the lowest FIC sum on the plate is designated the FICI.
(§5) Based on the EC50 values of AMP monotherapies, we designed checkerboard assays wherein antibacterial interactions between hLYS and each AMP were quantified. Classical drug interactions such as synergy, additivity, or antagonism manifest characteristic trends across a given checkerboard assay plate, where FICI < 0.5 is defined as synergy, 0.5 ≤ FICI < 4 is defined as additivity, and FICI ≥ 4 is defined as antagonism. Nonclassical interactions, as observed in some of our checkerboard results, might include a concentration‐dependent switch from synergy (or additivity) to antagonism. In extreme cases, we observed inversion of the dose–response curves for specific combinations and concentration ranges of our antibacterial agents, as discussed below.

[4] = system: P. aeruginosa strain Xen05; format: cell-based, Pseudomonas aeruginosa; details: for Interaction with hLYS against mucoid strain Xen05: class by FICI, checkerboard with hLYS
Experimental: as §3, §4, §5

[5] = Fig. S1 panels G-L, N, single agent dose response, technical triplicate or quadruplicate, repeated at least twice
[6] = single agent, luminescence, DT buffer (20 mM dextrose, 100 mM Tris, pH 7.4), 5 × 10^6 cells/mL, 37 °C, 4 h, 3-parameter logistic regression, technical triplicate or quadruplicate, repeated at least twice
[7] = Fig. S1 panels A-F, M, single agent dose response, technical triplicate or quadruplicate, repeated at least twice
[8] = AMP combined with hLYS, FIC from EC50 values (50% luminescence reduction), lowest FIC sum on plate, three independent trials

CC[C@H](C)[C@H](NC(=O)[C@H](CCCCN)NC(=O)[C@H](CCC(=O)O)NC(=O)[C@H](CCCCN)NC(=O)[C@H](CO)NC(=O)[C@H](CCCCN)NC(=O)[C@H](CCCNC(=N)N)NC(=O)[C@H](Cc1ccccc1)NC(=O)[C@H](Cc1ccccc1)NC(=O)[C@H](CC(=O)O)NC(=O)CNC(=O)[C@H](CC(C)C)NC(=O)[C@@H](N)CC(C)C)C(=O)NCC(=O)N[C@@H](CCCCN)C(=O)N[C@@H](CCC(=O)O)C(=O)N[C@@H](Cc1ccccc1)C(=O)N[C@@H](CCCCN)C(=O)N[C@@H](CCCNC(=N)N)C(=O)N[C@H](C(=O)N[C@H](C(=O)N[C@@H](CCC(N)=O)C(=O)N[C@@H](CCCNC(=N)N)C(=O)N[C@H](C(=O)N[C@@H](CCCCN)C(=O)N[C@@H](CC(=O)O)C(=O)N[C@@H](Cc1ccccc1)C(=O)N[C@@H](CC(C)C)C(=O)N[C@@H](CCCNC(=N)N)C(=O)N[C@@H](CC(N)=O)C(=O)N[C@@H](CC(C)C)C(=O)N[C@H](C(=O)N1CCC[C@H]1C(=O)N[C@@H](CCCNC(=N)N)C(=O)N[C@H](C(=O)N[C@@H](CCC(=O)O)C(=O)N[C@@H](CO)C(=O)O)[C@@H](C)O)C(C)C)[C@@H](C)CC)C(C)C)[C@@H](C)CC [LL37]
95% confidence intervals for EC50 values, H1001 [1, 5]: 5.7 to 6.6 µg/mL | EC50 H1001 [1, 6]: 6.1 µg/mL (≈ 1.36 µM) | 95% confidence intervals for EC50 values, Xen05 [2, 7]: 4.8 to 5.1 µg/mL | EC50 Xen05 [2, 6]: 5.0 µg/mL (≈ 1.11 µM) | FICI H1001 [3, 8]: 0.5 ± 0.2 | FICI Xen05 [4, 8]: 0.5 ± 0.2

CC(C)C[C@H](NC(=O)[C@H](CCCNC(=N)N)NC(=O)CNC(=O)CNC(=O)[C@@H](N)CCCNC(=N)N)C(=O)N[C@H]1CSSC[C@@H](C(=O)N[C@H](C(=O)NCC(=O)N[C@@H](CCCNC(=N)N)C(=O)O)C(C)C)NC(=O)[C@H](C(C)C)NC(=O)[C@@H]2CSSC[C@H](NC(=O)[C@H](Cc3ccc(O)cc3)NC1=O)C(=O)N[C@@H](CCCNC(=N)N)C(=O)N[C@@H](CCCNC(=N)N)C(=O)N[C@@H](CCCNC(=N)N)C(=O)N[C@@H](Cc1ccccc1)C(=O)N2 [PTG‐1] (H-RGGRLCYCRRRFCVCVGR-OH; disulfide 6-15, 8-13 (inferred); N-terminus and C-terminus assumed)
95% confidence intervals for EC50 values, H1001 ([1]; strain H1001, 4 h): 1.6 to 1.8 µg/mL | EC50 H1001 ([1]; strain H1001, 4 h, pH 7.4): 1.7 µg/mL (≈ 0.788 µM) | 95% confidence intervals for EC50 values, Xen05 ([2]; strain Xen05, 4 h): 1.1 to 1.2 µg/mL | EC50 Xen05 ([2]; strain Xen05, 4 h, pH 7.4): 1.1 µg/mL (≈ 0.51 µM) | Interaction with hLYS against nonmucoid strain H1001 [3]: synergy (FICI < 0.5 is defined as synergy) | Interaction with hLYS against mucoid strain Xen05 [4]: synergy (FICI < 0.5 is defined as synergy)

FAKKLAKKLKKLAKKLAK [HB71]
EC50 H1001 [1, 6]: 2.6 µg/mL | 95% confidence intervals for EC50 values, Xen05 [2, 7]: 1.4 to 1.8 µg/mL | EC50 Xen05 [2, 6]: 1.6 µg/mL

GIINTLQKYYCRVRGGRCAVLSCLPKEEQIGKCSTRGRKCCRRKK (disulfide 11-40, 18-33, 23-41 (inferred)) [hBD3]
95% confidence intervals for EC50 values, H1001 ([1]; strain H1001, 4 h): 6.9 to 7.1 µg/mL | EC50 H1001 ([1]; strain H1001, 4 h, pH 7.4): 7.0 µg/mL | 95% confidence intervals for EC50 values, Xen05 ([2]; strain Xen05, 4 h): 5.5 to 6.5 µg/mL | EC50 Xen05 ([2]; strain Xen05, 4 h, pH 7.4): 6.0 µg/mL | Interaction with hLYS against nonmucoid strain H1001 [3]: synergy (FICI < 0.5 is defined as synergy) | Interaction with hLYS against mucoid strain Xen05 [4]: additivity (0.5 ≤ FICI < 4 is defined as additivity)

RRWKIVVIRWRR [Tet009]
95% confidence intervals for EC50 values, H1001 [1, 5]: 2.5 to 2.9 µg/mL | EC50 H1001 [1, 6]: 2.7 µg/mL | 95% confidence intervals for EC50 values, Xen05 [2, 7]: 1.4 to 1.5 µg/mL | EC50 Xen05 [2, 6]: 1.5 µg/mL

human lysozyme [hLYS]
95% confidence intervals for EC50 values, H1001 [1, 5]: 700 to 1100 µg/mL | EC50 H1001 [1, 6]: 890 µg/mL | 95% confidence intervals for EC50 values, Xen05 [2, 7]: 800 to 1200 µg/mL | EC50 Xen05 [2, 6]: 990 µg/mL
